Experimental findings from patent US10821100B2, “Triazolone compounds as mPGES-1 inhibitors” (Glenmark Pharmaceuticals S.A., priority 2012, dated 2020) are described below.

This test has as its target T1, Recombinant human mPGES-1 (Homo sapiens, UniProt O14684).
T1 construct: made in house; host or cells: CHO cells (crude microsomal fractions)
T1 sequence (O14684 1-152): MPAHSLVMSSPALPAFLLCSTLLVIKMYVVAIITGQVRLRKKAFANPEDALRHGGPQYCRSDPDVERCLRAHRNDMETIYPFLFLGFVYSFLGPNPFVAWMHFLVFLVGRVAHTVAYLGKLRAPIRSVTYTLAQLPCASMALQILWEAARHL
Briefly: In-vitro screening of mPGES-1 inhibitors (inhibition of PGE2 formation from PGH2, HTRF detection). It is filed as biochemical. The note with it: mPGES-1 enzyme; for inhibition at 1 µM: 1 μM test compound, read-out: Percentage inhibition at 1 μM; for inhibition at 1 µM / inhibition at 10 µM: crude microsomal fractions; for inhibition at 10 µM: 10 μM test compound, read-out: Percentage inhibition at 10 μM; for IC50: class symbols. The text has this: In-Vitro Protocol for Screening of mPGES-1 Inhibitors: mPGES-1 (Microsomal prostaglandin E synthase-1) is a microsomal enzyme that converts endoperoxide substrate PGH2 (prostaglandin H2) to product PGE2 (prostaglandin E2) by isomerization in the presence of reduced glutathione (GSH). mPGES-1 inhibitors were screened by assessing their ability to inhibit formation of PGE2 from PGH2 in the presence of mPGES-1 using an anti-PGE2 antibody based detection method. Recombinant human mPGES-1 was generated in-house by expression in CHO cells (Ouellet M et al. (2002), Protein Expression and Purification 26: 489-495). The assay was set up using crude microsomal fractions at a protein concentration of 40-60 μg/mL. Test compounds were prepared in 100% dimethyl sulfoxide (DMSO) to obtain 20 mM stock solution and then diluted using assay buffer comprising 0.1 M Potassium phosphate buffer with 2 mM EDTA. The final concentration of DMSO in the reaction was 0.5% (v/v). Negative controls were comprised of all assay reagents except the enzyme. Positive controls were comprised of the enzyme reaction in the absence of any inhibitor. Test compounds were incubated for 10 minutes in assay buffer containing 2.5 mM GSH and mPGES-1 enzyme followed by addition of PGH2 at a concentration of 15 μM for 1 minute. The reaction was stopped by addition of Stannous chloride (11 mg/ml) and PGE2 levels were measured ([…] et al. (2005), Journal of Biomolecular Screening 10(6) 599-605; Goedken R E et al. (2008), Journal of Biomolecular Screening 13 (7): 619-625) by HTRF kit (CisBio)). Inhibition of mPGES-1 enzyme activity was measured using the percent of reaction occurring in the positive control. Concentration response curves were plotted using percent inhibition of maximum enzyme reaction. The IC50 value was calculated from the concentration response curve by nonlinear regression analysis using GraphPad PRISM software.
A general note: In TR-FRET formats the signal depends on donor and acceptor labels being close together.

As usually defined, the inhibition is the change of the read-out against control, counted positive when it falls. On to `CC(C)(C)C(=O)NCc1ccc(Cl)c(-c2nn(-c3ccc(F)cc3F)c(=O)[nH]2)c1F` [Example-85, N-(4-Chloro-j-(1-(2,4-difluorophenyl)-5-oxo-4,5-dihydro-1H-1,2,4-triazol-3-yl)-2-fluorobenzyl)pivalamide], for which the inhibition at 1 µM was found to be 22.6% and the inhibition at 10 µM was found to be 69.3%.

Consider `COc1ccc(-n2nc(-c3c(F)cccc3Cl)[nH]c2=O)cc1C(=O)NC1(c2ccc(C(F)(F)F)cc2)CC1` [Example-23, 5-[3-(2-Chloro-6-fluorophenyl)-5-oxo-4,5-dihydro-1H-1,2,4-triazol-1-yl]-2-methoxy-N-[1-[4-(trifluoromethyl)phenyl]cyclopropyl]benzamide], for which the inhibition at 1 µM was 13.2% and the inhibition at 10 µM is 52.9%.

In general, IC50 refers to the concentration that inhibits the measured activity by half. For `CC(C)(C)C(=O)NCc1ccc(Cl)c(-n2nc(-c3ccc(C#CC4CC4)cc3)[nH]c2=O)c1F` [Example-112, N-(4-Chloro-3-(3-(4-(2-cyclopropylethynyl)phenyl)-4,5-dihydro-5-oxo-1,2,4-triazol-1-yl)-2-fluorobenzyl)pivalamide], the inhibition at 1 µM is 99.5%, the inhibition at 10 µM worked out at 99.8% and the IC50 is below 0.05 µM.

In the case of `COc1ccc(-n2nc(-c3c(F)cccc3Cl)[nH]c2=O)cc1C(=O)NCc1ccccc1C(F)(F)F` [Example-20, 5-[3-(2-Chloro-6-fluorophenyl)-5-oxo-4,5-dihydro-1H-1,2,4-triazol-1-yl]-2-methoxy-N-[2-(trifluoromethyl)benzyl]benzamide], the inhibition at 1 µM was determined as 22.4% and the inhibition at 10 µM amounted to 87.4%.

With `Cc1ccc(-n2nc(-c3cc(CNC(=O)C(C)(C)C)ccc3Cl)[nH]c2=O)cc1Cl` [Example-140, N-(4-Chloro-3-(1-(3-chloro-4-methylphenyl)-4,5-dihydro-5-oxo-1H-1,2,4-triazol-3-yl)benzyl)pivalamide], the inhibition at 1 µM worked out at 97.4%, the inhibition at 10 µM worked out at 98.1% and the IC50 was below 0.05 µM.

Regarding `COCCCNc1nc(-c2c(F)cccc2Cl)nn1-c1ccc(Br)cc1` [Example-11, 1-(4-Bromophenyl)-3-(2-chloro-6-fluorophenyl)-N-(3-methoxypropyl)-1H-1,2,4-triazol-5-amine], the inhibition at 1 µM worked out at 2.34% and the inhibition at 10 µM is 71.7%.

Take `CC(C)(C)C(=O)NCc1cc(-c2nn(-c3ccc(C(F)(F)F)nc3)c(=O)[nH]2)c(Cl)cc1F` [Example-129, N-(4-Chloro-2-fluoro-5-(1-(6-(trifluoromethyl)pyridin-3-yl)-4,5-dihydro-5-oxo-1H-1,2,4-triazol-3-yl)benzyl)pivalamide]: the inhibition at 1 µM is 93.5%, the inhibition at 10 µM turned out to be 92.1% and the IC50 is below 0.05 µM.

On to `CC(C)(C)S(=O)(=O)NCc1ccc(Cl)c(-c2nn(-c3ccc(C(F)(F)F)cc3)c(=O)[nH]2)c1` [Example-182, N-(4-Chloro-3-(5-oxo-1-(4-(trifluoromethyl)phenyl)-4,5-dihydro-1H-1,2,4-triazol-3-yl)benzyl)-2-methylpropane-2-sulfonamide], for which the inhibition at 1 µM amounted to 92.9%, the inhibition at 10 µM is 94% and the IC50 is below 0.05 µM.

In the case of `CC(C)(C)C(=O)NCc1cc(-c2nn(-c3ccc(F)c(C(F)(F)F)c3)c(=O)[nH]2)c(Cl)cc1F` [Example-128, N-(4-Chloro-2-fluoro-5-(1-(4-fluoro-3-(trifluoromethyl)phenyl)-4,5-dihydro-5-oxo-1H-1,2,4-triazol-3-yl)benzyl)pivalamide], the inhibition at 1 µM is 91.8%, the inhibition at 10 µM is 89.3% and the IC50 is below 0.05 µM.

For the compound `COc1cc(OC)cc(-c2noc(-c3ccc(-n4nc(-c5c(F)cccc5Cl)[nH]c4=O)cc3OC)n2)c1` [Example-41, 3-(2-Chloro-6-fluorophenyl)-1-(4-(3-(3,5-dimethoxyphenyl)-1,2,4-oxadiazol-5-yl)-3-methoxyphenyl)-1H-1,2,4-triazol-5(4H)-one], the inhibition at 1 µM stood at 58.8% and the inhibition at 10 µM amounted to 87.1%.
